For this test, the target named is T1, LXR α (Homo sapiens, UniProt Q13133).
T1 construct: Co-transfection expression plasmids, comprising full-length LXR α (pCMX-hLXR α); expressed in transfected cells; host or cells: CV-1 African Green Monkey kidney cells, transient transfection
T1 sequence (Q13133 1-447): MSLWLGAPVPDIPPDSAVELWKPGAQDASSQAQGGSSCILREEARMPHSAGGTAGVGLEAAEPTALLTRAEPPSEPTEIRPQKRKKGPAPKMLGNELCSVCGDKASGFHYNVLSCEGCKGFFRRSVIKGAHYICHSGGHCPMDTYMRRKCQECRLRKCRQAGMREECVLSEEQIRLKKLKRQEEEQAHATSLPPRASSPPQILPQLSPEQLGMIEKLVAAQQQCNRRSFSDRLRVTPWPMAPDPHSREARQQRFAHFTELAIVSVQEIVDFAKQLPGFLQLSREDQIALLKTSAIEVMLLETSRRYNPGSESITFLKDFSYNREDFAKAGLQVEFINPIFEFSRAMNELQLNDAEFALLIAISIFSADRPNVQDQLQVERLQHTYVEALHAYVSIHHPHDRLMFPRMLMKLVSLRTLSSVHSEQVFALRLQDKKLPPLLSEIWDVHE
T1 sequence (P19793 1-462 partner): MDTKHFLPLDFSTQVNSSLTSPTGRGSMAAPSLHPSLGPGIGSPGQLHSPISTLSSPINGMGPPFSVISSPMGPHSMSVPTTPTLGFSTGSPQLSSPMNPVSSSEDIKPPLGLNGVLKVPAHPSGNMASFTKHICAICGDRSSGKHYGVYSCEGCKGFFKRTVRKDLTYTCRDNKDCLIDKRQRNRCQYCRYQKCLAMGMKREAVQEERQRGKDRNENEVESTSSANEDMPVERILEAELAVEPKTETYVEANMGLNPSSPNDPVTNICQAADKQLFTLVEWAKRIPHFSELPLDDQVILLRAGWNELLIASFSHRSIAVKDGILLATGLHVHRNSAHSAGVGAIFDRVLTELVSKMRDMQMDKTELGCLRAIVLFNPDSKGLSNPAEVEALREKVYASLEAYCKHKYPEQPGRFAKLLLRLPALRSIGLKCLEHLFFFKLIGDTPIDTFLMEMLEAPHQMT
Description: LXR/LXRE co-transfection assay (luciferase reporter, CV-1 cells). The test is classed as cell-based. The following applies: for Emax: CV-1, average percent efficacy, relative to control N-(3-((4-fluorophenyl)-(naphthalene-2-sulfonyl)amino)propyl)-2,2-dimethylpropionamide, read-out: % Eff(a); for EC50: average EC50 for agonism, cotransfection assay, CV-1 cells. An excerpt:
To measure the ability of compounds to activate or inhibit the transcriptional activity of LXR in a cell based assay, the co-transfection assay was used. It has been shown that LXR functions as a heterodimer with RXR. For the co-transfection assay, expression plasmids for LXR and RXR are introduced via transient transfection into mammalian cells along with a luciferase reporter plasmid that contains one copy of a DNA sequence that is bound by LXR-RXR heterodimers (LXRE; Willy, P. et al. 1995). Treatment of transfected cells with an LXR agonist increases the transcriptional activity of LXR, which is measured by an increase in luciferase activity.
1. CV-1 African Green Monkey Kidney Cells
2. Co-transfection expression plasmids, comprising full-length LXR α (pCMX-hLXR α), LXR β (pCMX-hLXR β), or RXR α (pCMX-RXR), reporter plasmid (LXREx1-Tk-Luciferase), and control (pCMX-Galactosidase expression vector) (Willey et al. Genes & Development 9 1033-1045 (1995)).
CV-1 cells were prepared 24 hours prior to the experiment by plating them into T-175 flasks or 500 cm^2 dishes in order to achieve 70-80% confluency on the day of the transfection. The number of cells to be transfected was determined by the number of plates to be screened. Each 384 well plate requires 1.92×10^6 cells or 5000 cells per well. DNA Transfection Reagent was prepared by mixing the required plasmid DNAs with a cationic lipid transfection reagent FuGENE6 (Roche) by following the instructions provided with the reagents. Optimal DNA amounts were determined empirically per cell line and size of vessel to be transfected. 10-12 mL of media was added to the DNA Transfection Reagent and this mixture was added to the cells after aspirating media from the T175 cm^2 flask. Cells were then incubated at least 5 hours at 37° C. to prepare screening cells.
Luciferase assay reagent was prepared by combining before use (per 10 mL):
Assay plates were prepared by dispensing 5 μL of compound per well of a 384 well plate to achieve final compound concentration of 10 μM and no more than 1% DMSO. Media was removed from the screening cells, the cells trypsinized, harvested cells by centrifugation, counted, and plated at a density of approximately 5000 cells per well in the 384 well assay plate prepared above in a volume of about 45 μL. Assay plates containing both compounds and screening cells (50 μL in total volume) were incubated for 20 hours at 37° C.
After incubation with compounds, media was removed from the cells and lysis buffer (30 μuL/well) added. After 30 minutes at ambient temperature, luciferase assay buffer (30 μL/well) was added and the assay plates read on a luminometer (PE Biosystems Northstar reader with on-board injectors, or equivalent). Plates were read immediately after addition of luciferase assay buffer.
The LXR/LXRE co-transfection assay can be used to establish the EC50/IC50 values for potency and percent activity or inhibition for efficacy. Efficacy defines the activity of a compound relative to a high control ((N-(3-((4-fluorophenyl)-(naphthalene-2-sulfonyl)amino)propyl)-2,2-dimethylpropionamide)) or a low control (DMSO/vehicle). The dose response curves are generated from an 8 point curve with concentrations differing by ½ LOG units. Each point represents the average of 4 wells of data from a 384 well plate.
The data from this assay is fitted to the following equation, from the EC50 value may be solved: Y=Bottom+(Top-Bottom)/(1+10^((logEC50-X*HillSlope))
The EC50/IC50 is therefore defined as the concentration at which an agonist or antagonist elicits a response that is half way between the Top (maximum) and Bottom (baseline) values. The EC50/IC50 values represented are the averages of at least 3 independent experiments. […]
In general terms: A reporter such as luciferase makes a cellular process visible.

Turning to `Cc1ccc(Cn2c(C#CC(C)(C)O)cc3ccccc3c2=O)c(C)c1` [2-(2,4-dimethylbenzyl)-3-(3-hydroxy-3-methylbut-1-ynyl)-2H-isoquinolin-1-one], the Emax was 40 to 90% and the EC50 was above 0.5 µM.

As to `Cc1ccc(Cn2c(-c3ccc(Oc4ccccc4)cc3)cc3ccccc3c2=O)c(C)c1` [2-(2,4-dimethylbenzyl)-3-(4-phenoxyphenyl)-2H-isoquinolin-1-one], the Emax was above 90% and the EC50 was 0.01 to 0.15 µM.

Take `Cc1cccc(-c2cc3ccccc3c(=O)n2Cc2ccc(C)cc2C)c1` [2-(2,4-dimethylbenzyl)-3-m-tolyl-2H-isoquinolin-1-one]: the Emax was in the range of 40 to 90% and the EC50 was 0.15 to 0.5 µM.

In the case of `Cc1ccc(Cn2c(-c3ccsc3)cc3ccccc3c2=O)c(C)c1` [2-(2,4-dimethylbenzyl)-3-thiophen-3-yl-2H-isoquinolin-1-one], the Emax was 40 to 90% and the 50% effective concentration (EC50) is above 0.5 µM.

Regarding `Cc1cccc(-c2cc3ccccc3c(=O)n2Cc2ccccc2)c1` [2-benzyl-3-m-tolyl-2H-isoquinolin-1-one], the Emax was below 40% and the 50% effective concentration (EC50) was above 0.5 µM.

As for `O=c1c2c(Cl)cccc2cc(-c2cc(-c3cc(C(F)(F)F)cc(C(F)(F)F)c3)co2)n1Cc1ccc(F)cc1F` [3-[4-(3,5-bis-trifluoromethylphenyl)furan-2-yl]-8-chloro-2-(2,4-difluorobenzyl)-2H-isoquinolin-1-one], the Emax lay within 40 to 90% and the EC50 lay within 0.01 to 0.15 µM.

On to `Nc1ccc(-c2coc(-c3cc4cccc(Cl)c4c(=O)n3Cc3ccc(F)cc3F)c2)cc1C(F)(F)F` [3-[4-(4-amino-3-trifluoromethylphenyl)furan-2-yl]-8-chloro-2-(2,4-difluorobenzyl)-2H-isoquinolin-1-one], for which the Emax is above 90% and the concentration for a half-maximal effect (EC50) is below 0.01 µM.

`O=c1c2c(Cl)cccc2cc(-c2ccc(Oc3ccccc3)cc2)n1Cc1ccc(F)cc1F` [8-chloro-2-(2,4-difluorobenzyl)-3-(4-phenoxyphenyl)-2H-isoquinolin-1-one]: the Emax was above 90% and the concentration giving a half-maximal response (EC50) is 0.01 to 0.15 µM.

With `O=c1c2c(Cl)cccc2cc(-c2ccc(Oc3cnccn3)cc2)n1Cc1ccc(F)cc1F` [8-chloro-2-(2,4-difluorobenzyl)-3-[4-(pyrazin-2-yloxy)phenyl]-2H-isoquinolin-1-one], the Emax was above 90% and the EC50 was below 0.01 µM.

With `CS(=O)(=O)c1ccc(-c2ccc(-c3cc4cccc(Cl)c4c(=O)n3Cc3ccc(F)cc3F)s2)cc1` [8-chloro-2-(2,4-difluorobenzyl)-3-[5-(4-methanesulfonylphenyl)thiophen-2-yl]-2H-isoquinolin-1-one], the Emax fell in the range of 40 to 90% and the concentration giving a half-maximal response (EC50) lay in the range of 0.01 to 0.15 µM.

For the compound `O=c1c2c(Cl)cccc2cc(-c2ccc(Oc3ccccc3)cc2)n1CC1CCCCC1` [8-chloro-2-cyclohexylmethyl-3-(4-phenoxyphenyl)-2H-isoquinolin-1-one], the Emax is 40 to 90% and the concentration giving a half-maximal response (EC50) lay in the range of 0.01 to 0.15 µM.

For `O=c1c2c(Cl)cccc2cc(-c2ccc(Oc3ccccc3)cc2)n1Cc1cccs1` [8-chloro-3-(4-phenoxyphenyl)-2-thiophen-2-ylmethyl-2H-isoquinolin-1-one], the Emax fell in the range of 40 to 90% and the half-maximal effective concentration (EC50) lay in the range of 0.01 to 0.15 µM.

Turning to `CCOc1ccc(-c2csc(-c3cc4cccc(Cl)c4c(=O)n3Cc3ccc(F)cc3F)c2)cc1Cl` [8-chloro-3-[4-(3-chloro-4-ethoxyphenyl)thiophen-2-yl]-2-(2,4-difluorobenzyl)-2H-isoquinolin-1-one], the Emax was in the range of 40 to 90% and the concentration giving a half-maximal response (EC50) was 0.01 to 0.15 µM.

With `Cc1ccc(Cn2c(-c3ccc(Oc4ccccc4)cc3)cc3cccc(C)c3c2=O)cc1` [8-methyl-2-(4-methylbenzyl)-3-(4-phenoxyphenyl)-2H-isoquinolin-1-one], the Emax is 40 to 90% and the EC50 was in the range of 0.01 to 0.15 µM.

The EC50 is the midpoint of the concentration-response curve. Low readings indicate higher potency in that assay, high ones lower potency in that assay.

Values taken from patent US7265131B2, “Isoquinolinone derivatives and their use as therapeutic agents” (Exelixis, Inc., priority 2002, dated 2007).
